Assays:
Chilo suppressalis = assay: Rice field trials, control of Chilo suppressalis (Example 1, Trials 1-2, Spain); type: in vivo; conditions: applications AB
Procedure: (§1) All applications were made with an EC formulation containing 650 g/L of pelargonic acid (e.g., 685 g/L of 95% purity pelargonic acid), an anionic emulsifier and a branched fatty acid ester solvent.
Trials 1˜4 assessing the use of pelargonic acid for controlling Chilo suppressalis in rice were conducted in Spain and Thailand.
(§2) Application A was made to the crops at the beginning of infestations; for these trials, Stage BBCH 59; Application B was made 14 days after Application A.
(§3) Trial 1 was conducted in Spain using a water volume of 300 L/ha of water per application unless otherwise indicated. Pest Incidence/Number of Insects (PESINC) and Pest Severity (PESSEV) as a Percent of Untreated Check (% UNCK) as well as Phytotoxicity were assessed at various treatment evaluation intervals.
as §3, with “2” for “1”

Rice = assay: Phytotoxicity on rice (Example 1, Trials 1-2, Spain); type: in vivo; design: key: % leaf necrosis/discoloration vs untreated plants; conditions: applications AB
Description: “Low Phytotoxicity” of pelargonic acid, as used herein means that the toxic effect on plants is absent or at such a level so as not to adversely impact the growth and/or yield of the plant under a given set of test conditions, e.g., at a given concentration of pelargonic acid. Phytotoxic effects may be measured in a number of different ways, for example, according to the principals set out in OEPP/EPPO Bulletin (2014) 44 (3), 265-273 “PP 1/135 (4) Phytotoxicity assessment”. The phytotoxic effect on plants may be assessed visually as a function of the percentage of discoloration to the leaves and/or the appearance of necrosis. When the pelargonic acid compositions are applied to the foliage of the rice plants in accordance with the teachings herein, will typically result in a level of phytotoxicity of less than 20%, preferably less than 15%, more preferably less than 10% necrosis of the leaves in comparison to untreated plants. Preferred uses of the invention will typically result in phytotoxicity of 7% or less, whilst the most preferred uses will typically result in phytotoxicity of 5% or less. The above values are approximate as any purely visual assessment is likely to contain a degree of subjectivity.
as §1, §2, §3
as §3, with “2” for “1”

[1] = Trial 1, 14 DAB, water volume 150 L/ha
[2] = Trial 1, 14 DAB, water volume 300 L/ha, rate in treatment name
[3] = Trial 1, 27 DAB, water volume 150 L/ha
[4] = Trial 1, 27 DAB, water volume 300 L/ha, rate in treatment name, listed as PA 585 g/ha
[5] = Trial 1, 27 DAB, water volume 300 L/ha, rate in treatment name, listed as PA 975 g/ha
[6] = Trial 1, 27 DAB, water volume 300 L/ha, rate in treatment name, listed as PA 1300 g/ha
[7] = Trial 1, 27 DAB, water volume 300 L/ha, rate in treatment name, listed as PA 2600 g/ha
[8] = Trial 1, 40 DAB, water volume 150 L/ha
[9] = Trial 1, 40 DAB, water volume 300 L/ha, rate in treatment name, listed as PA 585 g/ha
[10] = Trial 1, 40 DAB, water volume 300 L/ha, rate in treatment name, listed as PA 975 g/ha
[11] = Trial 1, 40 DAB, water volume 300 L/ha, rate in treatment name, listed as PA 1300 g/ha
[12] = Trial 1, 40 DAB, water volume 300 L/ha, rate in treatment name, listed as PA 2600 g/ha

`CCCCCCCCC(=O)O` [PA 650 g/ha, pelargonic acid] was tested, and the “PESINC (Pest Incidence/Number of Insects) % UNCK (% efficacy)” value (Chilo suppressalis; [1]) was 75 % UNCK, the “PESSEV (Pest Severity) % UNCK” value (Chilo suppressalis; [1]) was 75 % UNCK and the “PESINC (Pest Incidence/Number of Insects) % UNCK (% efficacy)” value (Chilo suppressalis; [2]) was 75 % UNCK. The “PESSEV (Pest Severity) % UNCK” value (Chilo suppressalis; [2]) was 75 % UNCK, the “PESINC (Pest Incidence/Number of Insects) % UNCK (% efficacy)” value (Chilo suppressalis; [3]) was 42.08 % UNCK and the “PESSEV (Pest Severity) % UNCK” value (Chilo suppressalis; [3]) was 42.08 % UNCK. For the same compound, the “PESINC (Pest Incidence/Number of Insects) % UNCK (% efficacy)” value (Chilo suppressalis; [4]) was 30.83 % UNCK, the “PESSEV (Pest Severity) % UNCK” value (Chilo suppressalis; [4]) was 30.83 % UNCK and the “PESINC (Pest Incidence/Number of Insects) % UNCK (% efficacy)” value (Chilo suppressalis; [5]) was 42.08 % UNCK. For the same compound, the “PESSEV (Pest Severity) % UNCK” value (Chilo suppressalis; [5]) was 42.08 % UNCK, the “PESINC (Pest Incidence/Number of Insects) % UNCK (% efficacy)” value (Chilo suppressalis; [6]) was 46.25 % UNCK and the “PESSEV (Pest Severity) % UNCK” value (Chilo suppressalis; [6]) was 50 % UNCK. The “PESINC (Pest Incidence/Number of Insects) % UNCK (% efficacy)” value (Chilo suppressalis; [7]) was 59.58 % UNCK, the “PESSEV (Pest Severity) % UNCK” value (Chilo suppressalis; [7]) was 59.58 % UNCK and the “PESINC (Pest Incidence/Number of Insects) % UNCK (% efficacy)” value (Chilo suppressalis; [8]) was 43.75 % UNCK. The “PESSEV (Pest Severity) % UNCK” value (Chilo suppressalis; [8]) was 43.75 % UNCK, the “PESINC (Pest Incidence/Number of Insects) % UNCK (% efficacy)” value (Chilo suppressalis; [9]) was 27.71 % UNCK and the “PESSEV (Pest Severity) % UNCK” value (Chilo suppressalis; [9]) was 29.21 % UNCK. The “PESINC (Pest Incidence/Number of Insects) % UNCK (% efficacy)” value (Chilo suppressalis; [10]) was 46.88 % UNCK, the “PESSEV (Pest Severity) % UNCK” value (Chilo suppressalis; [10]) was 46.88 % UNCK and the “PESINC (Pest Incidence/Number of Insects) % UNCK (% efficacy)” value (Chilo suppressalis; [11]) was 47.5 % UNCK. For the same compound, the “PESSEV (Pest Severity) % UNCK” value (Chilo suppressalis; [11]) was 47.5 % UNCK, the “PESINC (Pest Incidence/Number of Insects) % UNCK (% efficacy)” value (Chilo suppressalis; [12]) was 63.13 % UNCK and the “PESSEV (Pest Severity) % UNCK” value (Chilo suppressalis; [12]) was 63.13 % UNCK. For the same compound, the “PESSEV (Pest Severity) % UNCK” value (Chilo suppressalis; Trial 2, 14 DAB, water volume 150 L/ha) was 100 % UNCK, the “PESSEV (Pest Severity) % UNCK” value (Chilo suppressalis; Trial 2, 14 DAB, water volume 300 L/ha, rate in treatment name) was 100 % UNCK and the “PESINC (Pest Incidence/Number of Insects) % UNCK” value (Chilo suppressalis; Trial 2, 15 DAB, water volume 150 L/ha) was 100 % UNCK. The “PESINC (Pest Incidence/Number of Insects) % UNCK” value (Chilo suppressalis; Trial 2, 15 DAB, water volume 300 L/ha, rate in treatment name) was 100 % UNCK, the “PESSEV (Pest Severity) % UNCK” value (Chilo suppressalis; Trial 2, 27 DAB, water volume 150 L/ha) was 45.31 % UNCK and the “PESSEV (Pest Severity) % UNCK” value (Chilo suppressalis; Trial 2, 27 DAB, water volume 300 L/ha, rate in treatment name, listed as PA 585 g/ha) was 55.21 % UNCK. The “PESSEV (Pest Severity) % UNCK” value (Chilo suppressalis; Trial 2, 27 DAB, water volume 300 L/ha, rate in treatment name, listed as PA 975 g/ha) was 57.29 % UNCK, the “PESSEV (Pest Severity) % UNCK” value (Chilo suppressalis; Trial 2, 27 DAB, water volume 300 L/ha, rate in treatment name, listed as PA 1300 g/ha) was 69.27 % UNCK and the “PESSEV (Pest Severity) % UNCK” value (Chilo suppressalis; Trial 2, 27 DAB, water volume 300 L/ha, rate in treatment name, listed as PA 2600 g/ha) was 77.6 % UNCK. For the same compound, the “PESINC (Pest Incidence/Number of Insects) % UNCK” value (Chilo suppressalis; Trial 2, 28 DAB, water volume 150 L/ha) was 40 % UNCK, the “PESINC (Pest Incidence/Number of Insects) % UNCK” value (Chilo suppressalis; Trial 2, 28 DAB, water volume 300 L/ha, rate in treatment name, listed as PA 585 g/ha) was 45 % UNCK and the “PESINC (Pest Incidence/Number of Insects) % UNCK” value (Chilo suppressalis; Trial 2, 28 DAB, water volume 300 L/ha, rate in treatment name, listed as PA 975 g/ha) was 45 % UNCK. For the same compound, the “PESINC (Pest Incidence/Number of Insects) % UNCK” value (Chilo suppressalis; Trial 2, 28 DAB, water volume 300 L/ha, rate in treatment name, listed as PA 1300 g/ha) was 57.5 % UNCK, the “PESINC (Pest Incidence/Number of Insects) % UNCK” value (Chilo suppressalis; Trial 2, 28 DAB, water volume 300 L/ha, rate in treatment name, listed as PA 2600 g/ha) was 74.17 % UNCK and the “PESSEV (Pest Severity) % UNCK” value (Chilo suppressalis; Trial 2, 40 DAB, water volume 150 L/ha) was 57.29 % UNCK. For the same compound, the “PESSEV (Pest Severity) % UNCK” value (Chilo suppressalis; Trial 2, 40 DAB, water volume 300 L/ha, rate in treatment name, listed as PA 585 g/ha) was 62.5 % UNCK, the “PESSEV (Pest Severity) % UNCK” value (Chilo suppressalis; Trial 2, 40 DAB, water volume 300 L/ha, rate in treatment name, listed as PA 975 g/ha) was 68.75 % UNCK and the “PESSEV (Pest Severity) % UNCK” value (Chilo suppressalis; Trial 2, 40 DAB, water volume 300 L/ha, rate in treatment name, listed as PA 1300 g/ha) was 68.75 % UNCK. The “PESSEV (Pest Severity) % UNCK” value (Chilo suppressalis; Trial 2, 40 DAB, water volume 300 L/ha, rate in treatment name, listed as PA 2600 g/ha) was 79.38 % UNCK, the “PESINC (Pest Incidence/Number of Insects) % UNCK” value (Chilo suppressalis; Trial 2, 41 DAB, water volume 150 L/ha) was 39.29 % UNCK and the “PESINC (Pest Incidence/Number of Insects) % UNCK” value (Chilo suppressalis; Trial 2, 41 DAB, water volume 300 L/ha, rate in treatment name, listed as PA 585 g/ha) was 52.86 % UNCK. For the same compound, the “PESINC (Pest Incidence/Number of Insects) % UNCK” value (Chilo suppressalis; Trial 2, 41 DAB, water volume 300 L/ha, rate in treatment name, listed as PA 975 g/ha) was 52.86 % UNCK, the “PESINC (Pest Incidence/Number of Insects) % UNCK” value (Chilo suppressalis; Trial 2, 41 DAB, water volume 300 L/ha, rate in treatment name, listed as PA 1300 g/ha) was 57.86 % UNCK and the “PESINC (Pest Incidence/Number of Insects) % UNCK” value (Chilo suppressalis; Trial 2, 41 DAB, water volume 300 L/ha, rate in treatment name, listed as PA 2600 g/ha) was 67.86 % UNCK. The Phytotoxicity (Rice; Trial 1 (PESINC table), water volume 150 L/ha) was 0, the Phytotoxicity (Rice; Trial 1 (PESINC table), water volume 300 L/ha) was 0 and the Phytotoxicity (Rice; Trial 1 (PESSEV table), water volume 150 L/ha) was 0. For the same compound, the Phytotoxicity (Rice; Trial 1 (PESSEV table), water volume 300 L/ha) was 0.

From patent US20250127162A1, “METHODS AND COMPOSITIONS FOR CONTROLLING PESTS IN RICE” (Globachem NV, priority 2022, published 2025)
